Reference: US11642336B2, “5-HT2A agonists for use in treatment of depression” (priority 2019, dated 2023)
Structures can show the parent of a compound that is named as a salt. Where two headings read alike, the source gives them in different places. Marks after values point to notes of the source that are not given here.

What was measured:
human 5-HT2A = human 5-HT2A (Homo sapiens (Human), UniProt P28223); assay: cell-based; assay type: cell-based; details: for 5-HT2A Rmax ± S.E.M: % of the Rmax of 5-HT; for Selectivity EC50 5-HT2C/EC50 5-HT2A: Ca2+/Fluo-4 assay, bounds are conservative estimates; for EC50: agonist potency, n = 3-4
5-HT2C = 5-HT2C (Homo sapiens (Human), UniProt P28335); assay: Ca2+/Fluo-4 assay, stable h5-HT2C-HEK293 cell line; assay type: cell-based; details: for 5-HT2C Rmax ± S.E.M: % of the Rmax of 5-HT; for EC50: agonist potency, n = 3-4; for 5-HT2C agonist activity (n.a./w.a.): tested up to 50 μM;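 on all read-outs here: Agonist-induced intracellular Ca2+ rise read by Fluo-4 fluorescence in HEK293 cells stably expressing the human 5-HT2C receptor, each compound run in duplicate on three or more occasions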
Chain of 5-HT2C (P28335 whole entry, looked up): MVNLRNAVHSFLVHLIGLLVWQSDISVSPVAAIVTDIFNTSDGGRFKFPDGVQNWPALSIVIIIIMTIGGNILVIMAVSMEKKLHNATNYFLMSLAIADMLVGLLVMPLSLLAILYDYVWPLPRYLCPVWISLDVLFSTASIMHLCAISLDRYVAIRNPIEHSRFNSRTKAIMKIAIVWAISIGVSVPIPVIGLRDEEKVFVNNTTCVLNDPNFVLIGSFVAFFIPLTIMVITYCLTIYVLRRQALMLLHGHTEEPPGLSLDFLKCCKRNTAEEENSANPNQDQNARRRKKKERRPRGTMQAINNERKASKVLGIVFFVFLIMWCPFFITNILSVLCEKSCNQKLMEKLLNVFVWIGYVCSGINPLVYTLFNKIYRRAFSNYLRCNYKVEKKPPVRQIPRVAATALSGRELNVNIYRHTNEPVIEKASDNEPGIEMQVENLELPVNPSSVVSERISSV
Protocol: The functional properties of the compounds were characterised at stable HEK293 cell lines stably expressing the human 5-HT2A receptor or human 5-HT2C receptor in the Ca^2+/Fluo-4 assay essentially as previously described.^10 Briefly, the cells were split into poly-D-lysine-coated black 96-well plates with clear bottoms (6×10^4 cells/well). The following day the culture medium was aspirated and the cells were incubated in 50 μl assay buffer [Hanks Buffered Saline Solution containing 20 mM HEPES, 1 mM CaCl2, 1 mM MgCl2, 2.5 mM probenecid, pH 7.4] supplemented with 6 mM Fluo-4/AM at 37° C. for 1 hour. Next, the buffer was aspirated, the cells were washed once with 100 μl assay buffer, and then 100 μl assay buffer was added to the cells (in the antagonist experiments the compound was added at this point). […] The compounds were characterized in duplicate at least three times at each cell line.

[1] = read-out: 5-HT2A [pEC50 ± S.E.M.] (converted)
[2] = read-out: 5-HT2C [pEC50 ± S.E.M.] (converted)

Compound | 5-HT2A Rmax ± S.E.M (human 5-HT2A) | Selectivity EC50 5-HT2C/EC50 5-HT2A (human 5-HT2A) | EC50 (human 5-HT2A; [1]) | 5-HT2C Rmax ± S.E.M (5-HT2C) | EC50 (5-HT2C; read-out: 5-HT2C EC50) | EC50 (human 5-HT2A; read-out: 5-HT2A EC50) | further results
COc1cc(C2CNC2)c(OC)cc1Br.Cl [Compound 1, 3-(4-bromo-2,5-dimethoxyphenyl)azetidine hydrochloride] | 97 ± 3% | 3.6 | 1.58 nM | 90 ± 3% | 5.8 nM | – | –
COc1cc(C(F)(F)F)c(OC)cc1C1CNC1.Cl [Compound 2, 3-(2,5-dimethoxy-4-(trifluoromethyl)phenyl)azetidine Hydrochloride] | 95 ± 2% | 5.2 | 1 nM | 87 ± 4% | 5.2 nM | – | –
COc1cc([C@H]2CCNC2)c(OC)cc1Br [Compound 3, (R)-3-(4-bromo-2,5-dimethoxyphenyl)pyrrolidine] | 57 ± 3% | 4.9 | 7.76 nM | 73 ± 3% | – | 5.3 nM | EC50 (5-HT2C; [2]): 25.7 nM
Br.COc1cc([C@@H]2CCNC2)c(OC)cc1Br [Compound 4, (S)-3-(4-bromo-2,5-dimethoxyphenyl)pyrrolidine Hydrobromide] | 39 ± 4% | 2.3 | – | 16 ± 3% | – | 7.7 nM | EC50 (5-HT2C; [2]): 17.8 nM
COc1cc(C(F)(F)F)c(OC)cc1[C@H]1CCNC1 [Compound 5, (R)-3-(2,5-dimethoxy-4-(trifluoromethyl)phenyl)pyrrolidine] | 45 ± 1% | 3.7 | 10.5 nM | 65 ± 4% | – | 11 nM | EC50 (5-HT2C; [2]): 40.7 nM
COc1cc(C(F)(F)F)c(OC)cc1[C@@H]1CCNC1 [Compound 6, (S)-3-(2,5-dimethoxy-4-(trifluoromethyl)phenyl)pyrrolidine] | 35 ± 4% | 3.5 | – | 28 ± 2% | – | 5.4 nM | EC50 (5-HT2C; [2]): 19.1 nM
COc1cc(C(F)(F)F)c(OC)cc1[C@H]1CCCNC1 [Compound 7, (R)-3-(2,5-Dimethoxy-4-(trifluoromethyl)phenyl)piperidine hydrochloride] | – | – | – | – | 860 nM | – | –
COc1cc([C@H]2CCCNC2)c(OC)cc1Cl [Compound 9, (R)-3-(4-Chloro-2,5-dimethoxyphenyl)piperidine] | – | – | – | – | 1800 nM | 690 nM | EC50 (5-HT2C; [2]): 1780 nM
COc1cc([C@H]2CCCNC2)c(OC)cc1Br [Compound 11, (R)-3-(4-bromo-2,5-dimethoxyphenyl)piperidine] | – | – | – | – | 1900 nM | 370 nM | –
COc1cc([C@H]2CCCNC2)c(OC)cc1I [Compound 13, (R)-3-(4-Iodo-2,5-dimethoxyphenyl)piperidine] | – | – | 263 nM | – | – | 260 nM | –
COc1cc([C@H]2CCCNC2)c(OC)cc1C#N [Compound 15, (R)-2,5-dimethoxy-4-(piperidin-3-yl)benzonitrile] | – | – | – | ~13-17^c % | ~10000 nM | 2200 nM | –
COc1cc([C@H]2CCCNC2)c(OC)cc1SC [Compound 17, (R)-3-(2,5-dimethoxy-4-(methylthio)phenyl)piperidine hydrochloride] | – | – | 178 nM | – | 2300 nM | 180 nM | EC50 (5-HT2C; [2]): 2340 nM
CCOc1cc([C@H]2CCCNC2)c(OC)cc1C(F)(F)F.Cl [Compound 19, (R)-3-(5-ethoxy-2-methoxy-4-(trifluoromethyl)phenyl)piperidine hydrochloride] | 86 ± 6% | – | 316 nM | – | – | 320 nM | –
CCOc1cc(C(F)(F)F)c(OCC)cc1[C@H]1CCCNC1.Cl [Compound 21, (R)-3-(2,5-diethoxy-4-(trifluoromethyl)phenyl)piperidine hydrochloride] | 69 ± 4% | >10^e | – | – | – | 3000 nM | –
COc1cc([C@H]2CCCNC2)c(OC)cc1C [Compound 23, (R)-3-(2,5-dimethoxy-4-methylphenyl)piperidine hydrochloride] | – | – | 263 nM | – | 1200 nM | 260 nM | –
COc1cc([C@H]2CCCNC2)c(OC)cc1SC(C)C [Compound 25, (R)-3-(4-(isopropylthio)-2,5-dimethoxyphenyl)piperidine] | – | – | – | – | – | 290 nM | –
CCSc1cc(OC)c([C@H]2CCCNC2)cc1OC [Compound 27, (R)-3-(2,5-dimethoxy-4-(ethylthio)phenyl)piperidine hydrochloride] | – | – | 186 nM | – | 780 nM | 190 nM | –

Compound | 5-HT2A Rmax ± S.E.M (human 5-HT2A) | Selectivity EC50 5-HT2C/EC50 5-HT2A (human 5-HT2A) | EC50 (human 5-HT2A; [1]) | 5-HT2C Rmax ± S.E.M (5-HT2C) | EC50 (5-HT2C; read-out: 5-HT2C EC50) | EC50 (human 5-HT2A; read-out: 5-HT2A EC50) | further results
CCOc1cc(C(F)(F)F)c(OC)cc1[C@H]1CCCNC1.Cl [Compound 29, (R)-3-(2-ethoxy-5-methoxy-4-(trifluoromethyl)phenyl)piperidine hydrochloride] | 77 ± 7% | – | – | – | 2700 nM | 410 nM | EC50 (5-HT2C; [2]): 2750 nM
CCc1cc(OC)c([C@H]2CCCNC2)cc1OC [Compound 31, (R)-3-(4-ethyl-2,5-dimethoxyphenyl)piperidine hydrochloride] | – | – | 115 nM | – | 640 nM | 110 nM | –
CCOc1cc([C@H]2CCCNC2)c(OC)cc1CC.Cl [Compound 33, (R)-3-(5-ethoxy-4-ethyl-2-methoxyphenyl)piperidine hydrochloride] | 89 ± 4% | >10^e | 1120 nM | – | – | 1100 nM | –
CCOc1cc([C@H]2CCCNC2)c(OCC)cc1CC.Cl [Compound 40, (R)-3-(2,5-diethoxy-4-ethylphenyl)piperidine hydrochloride] | ~61-74^c % | >3^e | – | – | – | 7000 to 10000 nM | –
CCOc1cc(CC)c(OC)cc1[C@H]1CCCNC1 [Compound 42, (R)-3-(2-ethoxy-4-ethyl-5-methoxyphenyl)piperidine] | 80 ± 9% | >10^e | – | – | – | 1500 nM | –
COc1cc(C(F)(F)F)c(SC)cc1[C@H]1CCCNC1.Cl [Compound 44, (R)-3-(2-methoxy-5-(methylthio)-4-(trifluoromethyl)phenyl)piperidine hydrochloride] | 96 ± 6% | 9.3 | – | 50 ± 2% | 660 nM | 71 nM | –
CCSc1cc([C@H]2CCCNC2)c(OC)cc1C(F)(F)F.Cl [Compound 46, (R)-3-(2-methoxy-5-(ethylthio)-4-(trifluoromethyl)phenyl)piperidine hydrochloride] | 97 ± 2% | 7.4 | 145 nM | 53 ± 5% | 1100 nM | 150 nM | EC50 (5-HT2C; [2]): 1070 nM
COc1cc([C@H]2CCCNC2)ccc1C(F)(F)F.Cl [Compound 48, (R)-3-(3-methoxy-4-(trifluoromethyl)phenyl)piperidine hydrochloride] | 68 ± 7% | >50^e | – | – | – | 1800 nM | –
COc1cc([C@@H]2CCCNC2)ccc1C(F)(F)F.Cl [Compound 49, (S)-3-(3-methoxy-4-(trifluoromethyl)phenyl)piperidine Hydrochloride] | 65 ± 3% | 0.51 | 2450 nM | 35 ± 3% | 1300 nM | 2500 nM | EC50 (5-HT2C; [2]): 1260 nM
COc1cc(C(F)(F)F)c(F)cc1[C@H]1CCCNC1.Cl [Compound 50, (R)-3-(5-fluoro-2-methoxy-4-(trifluoromethyl)phenyl)piperidine hydrochloride] | 78 ± 6% | 2.8 | – | 40 ± 8% | 1800 nM | 640 nM | EC50 (5-HT2C; [2]): 1780 nM
COc1cc(C(F)(F)F)ccc1[C@H]1CCCNC1 [Compound 52, (R)-3-(2-methoxy-4-(trifluoromethyl)phenyl)piperidine hydrochloride] | 77 ± 2% | – | – | – | 1400 nM | 480 nM | –
COc1cc([C@H]2CCCNC2)c(OC2CC2)cc1C(F)(F)F [Compound 54, (R)-3-(2-cyclopropoxy-5-methoxy-4-(trifluoromethyl)phenyl)piperidine hydrochloride] | 76 ± 4% | – | 1780 nM | ~46-63^c % | 3000 to 10000 nM | 1800 nM | –
CCCCc1cc(OC)c([C@H]2CCCNC2)cc1OC [Compound 56, (R)-3-(4-butyl-2,5-dimethoxyphenyl)piperidine hydrochloride] | – | – | 347 nM | – | 1600 nM | 340 nM | –
CCN1CCC[C@H](c2cc(OC)c(C(F)(F)F)cc2OC)C1 [Compound 58, (R)-3-(2,5-dimethoxy-4-(trifluoromethyl)phenyl)-1-ethylpiperidine] | – | – | – | – | – | – | 5-HT2A agonist activity (n.a./w.a.) (human 5-HT2A; tested up to 50 μM): w.a. [@ 2-10-50; 5-HT2C agonist activity (n.a./w.a.) (5-HT2C): w.a.
CCN1CCC[C@@H](c2cc(OC)c(C(F)(F)F)cc2OC)C1 [Compound 59, (S)-3-(2,5-dimethoxy-4-(trifluoromethyl)phenyl)-1-ethylpiperidine] | 44 ± 3% | >30^e | – | – | – | 1500 nM | loss of potency at 5-HT2A compared to compound 8 (factor) (human 5-HT2A; nitrogen substituents (tertiary amines)): ~80; 5-HT2C agonist activity (n.a./w.a.) (5-HT2C): w.a.
COc1cc(C(F)(F)F)c(OC)cc1[C@H]1CCCN(C)C1 [Compound 60, (R)3-(2,5-dimethoxy-4-(trifluoromethyl)phenyl)-1-methylpiperidine] | 53 ± 8% | – | – | – | – | 1100 nM | 5-HT2C agonist activity (n.a./w.a.) (5-HT2C): w.a.
COc1cc(CCNCc2ccccc2O)c(OC)cc1C#N [drawing 23, reference compound] | – | – | – | 96 ± 7% | – | – | EC50 (5-HT2C; 5-HT2C EC50 (nM)): 47 nM
